Measurements published in the NIST ThermoML archive (doi:10.1016/j.tca.2016.03.026).

What was measured:
[1] = xn = mol fraction of the nth substance listed; conditions: 100 kPa, Liquid; for speed of sound: Frequency=3 MHz, Sing-around technique in a fixed-path interferometer; for mass density: Vibrating tube method
[2] = refractive index (Na D-line) (dimensionless); xn = mol fraction of the nth substance listed; conditions: 100 kPa, Liquid, Standard Abbe refractometry

CCCCCCCC[n+]1ccn(C)c1.F[B-](F)(F)F [1-methyl-3-octylimidazolium tetrafluoroborate] + CC(C)(C)O
Conditions	mass density, 298.15 K [kg/m3]	mass density, 308.15 K [kg/m3]	mass density, 318.15 K [kg/m3]	refractive index, 298.15 K	refractive index, 308.15 K	refractive index, 318.15 K	speed of sound, 298.15 K [m/s]	speed of sound, 308.15 K [m/s]	speed of sound, 318.15 K [m/s]
[1], x1 = 0.1017	858.69	849.64	840.32	–	–	–	1188.3	1157.2	1119.1
[1], x1 = 0.1988	914.56	906	897.39	–	–	–	1254.2	1221.6	1190.2
[1], x1 = 0.3011	959.49	951.41	943.34	–	–	–	1309.4	1275.6	1246.5
[1], x1 = 0.4052	994.81	987.25	979.38	–	–	–	1351.5	1322.2	1293.3
[1], x1 = 0.5002	1020.68	1013.4	1005.9	–	–	–	1382.5	1353.6	1324.9
[1], x1 = 0.604	1044.05	1037.31	1029.92	–	–	–	1410.1	1383.3	1354.5
[1], x1 = 0.7024	1062.66	1056.01	1049.1	–	–	–	1433.4	1409	1380.2
[1], x1 = 0.7992	1078.39	1071.8	1064.98	–	–	–	1451.3	1428.2	1402.2
[1], x1 = 0.9014	1092.82	1086.23	1079.48	–	–	–	1467.6	1443.3	1417.2
[1], x1 = 1	1105.02	1098.32	1091.54	–	–	–	1485.1	1458.5	1433.2
[2], x1 = 0.1017	–	–	–	1.40022	1.39681	1.39317	–	–	–
[2], x1 = 0.1988	–	–	–	1.40992	1.40684	1.40405	–	–	–
[2], x1 = 0.3011	–	–	–	1.41591	1.41342	1.41058	–	–	–
[2], x1 = 0.4052	–	–	–	1.41962	1.41719	1.41452	–	–	–
[2], x1 = 0.5002	–	–	–	1.42177	1.41911	1.41635	–	–	–
[2], x1 = 0.604	–	–	–	1.42411	1.42168	1.41871	–	–	–
[2], x1 = 0.7024	–	–	–	1.42628	1.42348	1.42104	–	–	–
[2], x1 = 0.7992	–	–	–	1.42805	1.42562	1.42272	–	–	–
[2], x1 = 0.9014	–	–	–	1.43025	1.42769	1.42513	–	–	–
[2], x1 = 1	–	–	–	1.43253	1.42984	1.42715	–	–	–

CCCCCCCC[n+]1ccn(C)c1.F[B-](F)(F)F [1-methyl-3-octylimidazolium tetrafluoroborate] + CCCCO
Conditions	mass density, 298.15 K [kg/m3]	mass density, 308.15 K [kg/m3]	mass density, 318.15 K [kg/m3]	refractive index, 298.15 K	refractive index, 308.15 K	refractive index, 318.15 K	speed of sound, 298.15 K [m/s]	speed of sound, 308.15 K [m/s]	speed of sound, 318.15 K [m/s]
[1], x1 = 0.1027	878.23	870.62	862.9	–	–	–	1273.2	1240.8	1206.7
[1], x1 = 0.2022	929.75	922.28	914.69	–	–	–	1306.5	1274.7	1241.8
[1], x1 = 0.3056	970.63	963.3	955.89	–	–	–	1339.7	1308.7	1276.3
[1], x1 = 0.3989	999.88	992.71	985.42	–	–	–	1366.1	1336	1304.2
[1], x1 = 0.5062	1027.17	1020.16	1013	–	–	–	1392.8	1363.2	1333.3
[1], x1 = 0.6018	1047.22	1040.32	1033.31	–	–	–	1413.7	1384.8	1356
[1], x1 = 0.6978	1064.35	1057.54	1050.61	–	–	–	1431.9	1403.8	1377
[1], x1 = 0.8014	1080.2	1073.47	1066.62	–	–	–	1450.2	1423	1397.2
[1], x1 = 0.9062	1094.06	1087.36	1080.57	–	–	–	1468.3	1441.6	1416.3
[1], x1 = 1	1105.02	1098.32	1091.54	–	–	–	1485.1	1458.5	1433.2
[2], x1 = 0.1027	–	–	–	1.40763	1.40492	1.40232	–	–	–
[2], x1 = 0.2022	–	–	–	1.41502	1.41254	1.40964	–	–	–
[2], x1 = 0.3056	–	–	–	1.41903	1.41692	1.41438	–	–	–
[2], x1 = 0.3989	–	–	–	1.42183	1.41956	1.41736	–	–	–
[2], x1 = 0.5062	–	–	–	1.42405	1.42175	1.41965	–	–	–
[2], x1 = 0.6018	–	–	–	1.42594	1.42362	1.42126	–	–	–
[2], x1 = 0.6978	–	–	–	1.42791	1.42542	1.42301	–	–	–
[2], x1 = 0.8014	–	–	–	1.42974	1.42732	1.42444	–	–	–
[2], x1 = 0.9062	–	–	–	1.43151	1.42861	1.42615	–	–	–
[2], x1 = 1	–	–	–	1.43253	1.42984	1.42715	–	–	–

CCCCCCCC[n+]1ccn(C)c1.F[B-](F)(F)F [1-methyl-3-octylimidazolium tetrafluoroborate] + CC(C)CO
Conditions	mass density, 298.15 K [kg/m3]	mass density, 308.15 K [kg/m3]	mass density, 318.15 K [kg/m3]	refractive index, 298.15 K	refractive index, 308.15 K	refractive index, 318.15 K	speed of sound, 298.15 K [m/s]	speed of sound, 308.15 K [m/s]	speed of sound, 318.15 K [m/s]
[1], x1 = 0.1084	876.21	869.11	860.8	–	–	–	1230.3	1198.3	1162.2
[1], x1 = 0.2056	927.81	920.72	912.57	–	–	–	1274.1	1242.4	1206.4
[1], x1 = 0.3002	966.65	959.59	951.64	–	–	–	1314.4	1282.1	1246.2
[1], x1 = 0.4082	1001.41	994.4	986.65	–	–	–	1354.1	1322.4	1287.5
[1], x1 = 0.4989	1024.88	1017.95	1010.44	–	–	–	1381.1	1351.3	1317.8
[1], x1 = 0.6024	1047.08	1040.26	1032.97	–	–	–	1407.2	1378.2	1347.4
[1], x1 = 0.7044	1065.38	1058.63	1051.52	–	–	–	1429.1	1402.1	1373.3
[1], x1 = 0.8062	1080.91	1074.22	1067.26	–	–	–	1447.2	1421.1	1394.3
[1], x1 = 0.8998	1093.3	1086.63	1079.78	–	–	–	1463.8	1437.1	1411.3
[1], x1 = 1	1105.02	1098.32	1091.54	–	–	–	1485.1	1458.5	1433.2
[2], x1 = 0.1084	–	–	–	1.40643	1.40292	1.40008	–	–	–
[2], x1 = 0.2056	–	–	–	1.41442	1.41142	1.40854	–	–	–
[2], x1 = 0.3002	–	–	–	1.41922	1.41636	1.41407	–	–	–
[2], x1 = 0.4082	–	–	–	1.42292	1.41998	1.41801	–	–	–
[2], x1 = 0.4989	–	–	–	1.42482	1.42182	1.41925	–	–	–
[2], x1 = 0.6024	–	–	–	1.42664	1.42372	1.42108	–	–	–
[2], x1 = 0.7044	–	–	–	1.42845	1.42562	1.42306	–	–	–
[2], x1 = 0.8062	–	–	–	1.43004	1.42748	1.42474	–	–	–
[2], x1 = 0.8998	–	–	–	1.43121	1.42866	1.42604	–	–	–
[2], x1 = 1	–	–	–	1.43253	1.42984	1.42715	–	–	–
